Structures are written as SMILES.

Our source for the IC50 values is ChEMBL document CHEMBL1128900, “Non-peptidic inhibitors of neutral endopeptidase 24.11 1. Discovery and optimization of potency” (Bioorg Med Chem Lett, 1995).

This assay has as its target T1, Neprilysin (Rattus norvegicus, UniProt P07861).
T1 sequence (P07861 whole entry): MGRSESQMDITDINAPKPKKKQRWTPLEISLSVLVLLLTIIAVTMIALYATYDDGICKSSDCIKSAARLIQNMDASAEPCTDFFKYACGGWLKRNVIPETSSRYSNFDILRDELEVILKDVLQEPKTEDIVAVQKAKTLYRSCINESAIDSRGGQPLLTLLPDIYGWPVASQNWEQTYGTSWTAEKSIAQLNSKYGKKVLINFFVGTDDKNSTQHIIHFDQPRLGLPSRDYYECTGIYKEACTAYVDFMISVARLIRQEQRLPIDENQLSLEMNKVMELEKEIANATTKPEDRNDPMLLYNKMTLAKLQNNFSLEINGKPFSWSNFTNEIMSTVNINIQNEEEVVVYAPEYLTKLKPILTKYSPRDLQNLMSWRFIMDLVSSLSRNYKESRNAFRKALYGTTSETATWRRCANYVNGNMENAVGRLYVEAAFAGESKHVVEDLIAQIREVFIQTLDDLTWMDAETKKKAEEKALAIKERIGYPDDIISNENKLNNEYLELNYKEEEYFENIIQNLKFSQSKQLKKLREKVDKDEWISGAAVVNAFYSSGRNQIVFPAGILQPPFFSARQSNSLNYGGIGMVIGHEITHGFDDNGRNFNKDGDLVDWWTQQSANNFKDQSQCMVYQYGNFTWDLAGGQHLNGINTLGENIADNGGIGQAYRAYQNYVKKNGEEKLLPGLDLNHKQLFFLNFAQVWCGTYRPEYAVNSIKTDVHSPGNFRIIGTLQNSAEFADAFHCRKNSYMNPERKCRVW
Nature of the assay: In vitro inhibitory activity against neutral endopeptidase (NEP).
Take `O=C(O)C(Cc1ccccc1-c1ccccc1)NCP(=O)(O)O` (configuration not stated): the IC50 (as a rule, the concentration that inhibits the measured activity by half) was > 1000 nM.
Compound `O=C(O)CCNC(=O)[C@H](Cc1ccc(-c2ccccc2)cc1)NCP(=O)(O)O` registered an IC50 of 1900 nM.
For `COc1cc(C[C@H](NCP(=O)(O)O)C(=O)O)ccc1-c1ccccc1` the value was 14 nM; for `CN(CP(=O)(O)O)[C@@H](Cc1ccc(-c2ccccc2)cc1)c1nnn[nH]1`, 530 nM.
The same measure for `O=C(O)[C@H](Cc1ccc(-c2cccnc2)cc1)NCP(=O)(O)O`: > 1000 nM; for `NC(=O)[C@H](Cc1ccc(-c2ccccc2)cc1)NCP(=O)(O)O`: 1300 nM; for `CC(C)Oc1ccc(C[C@H](NCP(=O)(O)O)c2nnn[nH]2)cc1`: 15 nM.
For `O=P(O)(O)CN[C@@H](Cc1ccc2ccccc2c1)c1nnn[nH]1` the value was 364 nM.
Regarding `O=C(O)C(Cc1cccc(-c2ccccc2)c1)NCP(=O)(O)O` (configuration not stated), the IC50 was > 1000 nM.
In the case of `O=C(O)[C@H](Cc1ccc(-c2ccccc2)cc1)NCCP(=O)(O)O`, the IC50 is > 10000 nM.
Turning to `O=C(O)/C=C/[C@H](Cc1ccc(-c2ccccc2)cc1)NCP(=O)(O)O`, half-maximal inhibition (IC50) required 32 nM.
In the case of `O=P(O)(O)CN[C@@H](Cc1ccc(-c2ccccc2)cc1)c1nnnn1Cc1ccccc1`, the IC50 was > 1000 nM.
Regarding `O=P(O)(O)CNC(c1nnn[nH]1)C(c1ccccc1)c1ccccc1` (configuration not stated), the IC50 was > 1000 nM.
For `O=C(O)C[C@H](Cc1ccc(-c2ccccc2)cc1)NCP(=O)(O)O` the value was 15 nM.
On to `COc1cc(C[C@H](NCP(=O)(O)O)c2nnn[nH]2)ccc1-c1ccccc1`, for which the IC50 came out at 1.5 nM.
The same measure for `O=P(O)(O)CN[C@@H](Cc1ccccc1)c1nnn[nH]1`: 26 nM; for `O=C(Nc1nn[nH]n1)[C@H](Cc1ccc(-c2ccccc2)cc1)NCP(=O)(O)O`: 1.4 nM; for `O=C(NCc1ccccc1)[C@H](Cc1ccc(-c2ccccc2)cc1)NCP(=O)(O)O`: 308 nM.
The same measure for `O=C(O)[C@H](Cc1ccccc1)NCP(=O)(O)O`: > 1000 nM; for `O=P(O)(O)CN[C@@H](CCc1ccccc1)c1nnn[nH]1`: > 10000 nM; for `O=C(O)CC[C@H](Cc1ccc(-c2ccccc2)cc1)NCP(=O)(O)O`: 643 nM.
Regarding `Cc1ccc(-c2ccc(C[C@H](NCP(=O)(O)O)C(=O)O)cc2)cc1`, half-maximal inhibition (IC50) was put at 236 nM.
